Assay results published in patent publication US20250270159A1, “1-(CYCLOBUTANEMETHYLIDENE)-2, 4, 5-TRIMETHOXYBENZENE COMPOUND AND PREPARATION METHOD AND USE THEREOF” (CHENGDU XINRUI TAIKANG TECHNOLOGY CO., LTD., priority 2023, published 2025).
Marks after values point to notes of the source that are not given here.

Tests used:
[1] = tested on: Parkinson's disease (PD) mice, 6-OHDA method; assay: 6-OHDA Parkinson's disease mice, hanging experiment; type: in vivo, C57 mice; settings: Group D, CTMB 20 mg/kg ip, cut-off 60 s
Method: The mice were randomly divided into a sham operation group (group S, given a blank emulsion with a volume equal to that of the administered group), a model group (group M, given a blank emulsion with a volume equal to that of the administered group), a CTMB group (20 mg/kg, group D), and a levodopa group (levodopa: benserazide hydrochloride=4:1, 12 mg/kg, group L), each group included 10-12 mice, and all of them were administered intraperitoneally.
Preoperatively, mice were fasted for 12 h, and mice were anesthetized with 4% isoflurane induction and maintained with 1.5% isoflurane. The mice were subsequently immobilized on a brain stereotaxic apparatus. The bregma and lambda points were exposed by gently wiping the cranial surface with a cotton swab after cutting the scalp. The stereotaxic apparatus was adjusted to align the heights of the bregma and lambda points, thereby leveling the skull. The bregma point was designated as the origin, the coordinates where the injection site was located were located, and the drill was used to drill a small hole in the skull above the injection site.
6-OHDA (12.5 μg/μL) was injected into the striatum region (AP+0.5 mm; ML+2.00 mm; DV-3.00 mm and-2.00 mm) of the mice, and 1 μL 6-OHDA was injected into each of the two points at a rate of 0.5 μL/min. The needle was left in place for 3 min after the injection was completed, and then the injection needle was lifted, and the scalp of the mice was sutured and disinfected. The sham operation group was injected with an equal volume of saline containing 0.02% ascorbic acid, and other operations were performed as above. After the procedure, the mice were placed in the cage at an appropriate temperature. After awakening from anesthesia, the mice were kept normally.
The hanging experiment: normal mice have climbing activity, which requires proper grip strength and motor coordination, so the hanging experiment may be used to examine motor dysfunction in mice. A metal rod with a diameter of 1.5 mm was placed horizontally on top of the box, and a distance from the metal rod to the bottom of the box was 30 cm. […] Measurement was performed twice, with an interval of 1 min or more between each test, and the results were averaged over the two times.
The motor function of the mice was comprehensively assessed using the rod-climbing experiment and the hanging experiment at 1, 2, 3, and 4 weeks after drug administration.

GLT-1 = GLT-1 content in brain of TBI rats; type: in vivo, SD rats; settings: 30 mg/kg ip, 7 d continuous administration, FIG. 4
Method: (§1) The experimental grouping and drug administration plan were as follows. • Sham operation group (Group P): saline was given with the same volume as in the CTMB group; • Model group (T group): a blank emulsion was given with the same volume as in the CTMB group; • Medium dose group (Group M): a dose of 30 mg/kg of CTMB emulsion injection was given.
The experimental grouping and drug administration plan were the same as the test 3. After 7 d of continuous administration to each group, the rats were deeply anesthetized, the heads were severed and the brains were removed, about 60-120 mg of hemispheric cortex on the blood side was taken out, 10 times volume of ice-cold centrifugation buffer used for biochemical assay was added, homogenized for 10 min under an ice bath, and then centrifuged for 30 min at 4° C. and 14000 rpm/min. The supernatants were taken to test the GLT-1 and GABA content according to the instructions of GLT-1 and GABA content assay kit, respectively. Glutamate transporter 1 (GLT-1) is an important glutamate transporter in the brain that transports extracellular glutamate to the intracellular compartment. γ-aminobutyric acid (GABA) is an important inhibitory neurotransmitter, and a dramatic increase in the concentration of extracellular glutamate in pathological conditions leads to neuronal hyperexcitability toxicity.

[2] = tested on: blood-brain barrier permeability, traumatic brain injury (TBI) rats; assay: Blood-brain barrier permeability test (Evans blue) in TBI rats; type: in vivo, SD rats; settings: 30 mg/kg ip 2 h after TBI; 24 h after administration; FIG. 2
Method: as §1
After 2 h of traumatic brain injury (TBI) modeling, the rats in each group were administered with intraperitoneal injection. After 24 h of the administration, 4% Evans blue solution (2.5 mL/kg) was injected into the right tail vein of the rats, and after 1 h, the rats were deeply anesthetized. The rats were perfused with 100 mL of saline through the heart, the brains were rapidly severed and removed and were immediately divided into the left hemisphere, the right hemisphere, the cerebellum, and the brain stem. The brain tissues were weighed to wet weight, soaked in 10 times volume of pure formamide, incubated at 60° C. for 48 h, and centrifuged at 25° C. and 10000 rpm/min for 30 min. The supernatant was aspirated to detect the Evans blue dye by UV spectrophotometry at 622 nm and a standard curve was plotted for quantification, and the final results were shown as Evans blue content per gram of brain tissue (μg/g).

[3] = tested on: mouse model of pentylenetetrazole-induced epilepsy; assay: Mouse model of pentylenetetrazole-induced epilepsy (Racine score, seizure rate, latency); type: in vivo, Kunming (KM) mice; settings: for Incubation period (s), Clonic seizure / Incubation period (s), Tonic seizure: no seizure within 30 min recorded as 1800 s; for Seizure grade: pentylenetetrazole 75 mg/kg ip, Racine score within 30 min; for seizure rate, Clonic seizure / seizure rate, Tonic seizure: within 30 min
Method: Validation of the protective effect of CTMB in a mouse model of pentylenetetrazole-induced epilepsy. • (1) Experimental animals: specific pathogen free (SPF) adult male Kunming (KM) mice with a weight of 30-35 g. • (2) Animal grouping: the test mice were randomly divided into […], namely, saline group, low-dose CTMB group (a dose of 50 mg/kg, CTMB-L), middle-dose CTMB group (a dose of 75 mg/kg, CTMB-M), high-dose CTMB group (a dose of 100 mg/kg, CTMB-H), 10 mice in each group, and each group was administered by intraperitoneal injection. • (3) Evaluation methods and results:
After a period of drug administration, mice in each group were injected intraperitoneally with pentylenetetrazole of the epilepsy modeling drug with a dose of 75 mg/kg, and clonic seizures and tonic seizures were used as evaluation indexes. Racine scores as well as the seizure rate and latency period of clonic seizures (Racine scores of 1-3) and tonic seizures (Racine scores of 4-5) were observed and recorded for each group of mice within 30 min. Grading scale of Racine scores are as follows. Grade 0 represents normal nonepileptic activity; grade 1 represents wet-dog-like shaking or scratching; grade 2 represents head nodding or tail wagging; grade 3 represents stretching of one forelimb or clonus of one limb; grade 4 represents multiple limb clonus or tonicity; grade 5 represents falls and generalized tonic clonic seizures. If no seizure occurs in the mouse within 30 min, the latency period was recorded as 1800 s.

Compound: COc1cc(OC)c(OC)cc1C=C1CCC1 [CTMB, 1-(cyclobutylidenemethyl)-2,4,5-trimethoxybenzene]
- Hanging time, Before administration ([1]; baseline 2 weeks after 6-OHDA): 45.5 ± 14.6 s
- Hanging time, 1 week of administration [1]: 51.8 ± 14.1 s
- Hanging time, 2 weeks of administration [1]: 56.8 ± 5.2 s
- Hanging time, 3 weeks of administration [1]: 58.8 ± 2.8 s
- Hanging time, 4 weeks of administration [1]: 57.6 ± 4.6 s
- GLT-1 content in brain (GLT-1): reduces the GLT-1 content
- ratio of GLT-1 and GABA (GLT-1): significantly reduces the ratio of GLT-1 and GABA
- Evans blue exudation (content per gram of brain tissue) [2]: significantly reduces Evans blue exudation
- Incubation period (s), Clonic seizure ([3]; CTMB-H 100 mg/kg ip): 1549.9 ± 537.1 s
- Incubation period (s), Tonic seizure ([3]; CTMB-H 100 mg/kg ip): 1800.0 ± 0.0 s
- Seizure grade ([3]; CTMB-H 100 mg/kg ip): 0.2 ± 0.4
- seizure rate, Clonic seizure ([3]; CTMB-H 100 mg/kg ip): 20%***
- seizure rate, Tonic seizure ([3]; CTMB-H 100 mg/kg ip): 0%***
- Incubation period (s), Clonic seizure ([3]; CTMB-L 50 mg/kg ip): 588.9 ± 657.6 s
- Incubation period (s), Tonic seizure ([3]; CTMB-L 50 mg/kg ip): 1000.8 ± 700.7 s
- Seizure grade ([3]; CTMB-L 50 mg/kg ip): 4.1 ± 1.5
- seizure rate, Clonic seizure ([3]; CTMB-L 50 mg/kg ip): 90%
- seizure rate, Tonic seizure ([3]; CTMB-L 50 mg/kg ip): 70%
- Incubation period (s), Tonic seizure ([3]; CTMB-M 75 mg/kg ip): 1553.5 ± 400.4 s
- Seizure grade ([3]; CTMB-M 75 mg/kg ip): 1.8 ± 1.3
- seizure rate, Clonic seizure ([3]; CTMB-M 75 mg/kg ip): 50%*
- seizure rate, Tonic seizure ([3]; CTMB-M 75 mg/kg ip): 30%**
